From US20250144067A1, “PERSONALIZED STARVATION THERAPY FOR CANCER” (Faeth Therapeutics, Inc., priority 2021, published 2025)
Where a name gives a salt, the structure may show the parent alone. Read-outs that look alike come from different tables or passages of the source.

Experiments:
[1] = tested on: NCI-H292 lung cancer cells; experiment: FDA drug screening, complete media vs cholesterol-free media with simvastatin (TABLE 2); format: cell-based, human
[2] = tested on: NCI-H292 lung cancer cells; experiment: FDA drug screening, complete media vs cholesterol-free media without statin (TABLE 1); format: cell-based, human
[3] = NCI-H292 cells, cholesterol-free media with simvastatin 0.04 μM, cell growth value in FDA drug screen
[4] = NCI-H292 cells, complete media, cell growth value in FDA drug screen
[5] = complete media minus cholesterol-free media + simvastatin, >0 enhanced anti-cancer activity, about 0 neutral, <0 antagonist
[6] = NCI-H292 cells, cholesterol-free media without statin, FDA drug library screen
[7] = NCI-H292 cells, complete media, FDA drug library screen
[8] = complete vs cholesterol-free media, >0 enhanced anti-cancer activity, about 0 neutral, <0 antagonist
[9] = NCI-H292 cells, FDA drug library screen, cholesterol-free media with simvastatin 0.04 μM
[10] = NCI-H292 cells, FDA drug library screen, complete media
[11] = complete media vs cholesterol-free media + simvastatin (0.04 μM), >0 enhanced anti-cancer activity, about 0 neutral, <0 antagonist
[12] = NCI-H292 cells, cholesterol-free media without statin
[13] = complete vs cholesterol-free media, greater than 0 enhanced anti-cancer activity, about 0 neutral, below 0 antagonists
[14] = Complete minus Cholesterol-free, greater than 0 enhanced anti-cancer activity, about 0 neutral, below 0 antagonist
[15] = NCI-H292 cells, FDA drug library screen, cholesterol-free media without statin
[16] = NCI-H292 cells, cholesterol-free media with simvastatin 0.04 μM, FDA drug library screen (TABLE 2)
[17] = NCI-H292 cells, complete media, FDA drug library screen (TABLE 2)
[18] = complete media minus cholesterol-free media + simvastatin (0.04 μM), […]
[19] = Complete minus Cholesterol-free, […]
[20] = NCI-H292 cells in cholesterol-free media without statin
[21] = NCI-H292 cells in complete media
[22] = complete media minus cholesterol-free media + simvastatin (0.04 μM), >0 enhanced anti-cancer activity, about 0 neutral, <0 antagonist
[23] = NCI-H292 cells, FDA library drug in cholesterol-free media with simvastatin 0.04 μM
[24] = NCI-H292 cells, FDA library drug in complete media
[25] = complete media vs cholesterol-free media + simvastatin (0.04 μM), […]
[26] = Complete minus Cholesterol-free, greater than 0 enhanced anti-cancer activity, about 0 neutral, below 0 antagonists
[27] = Complete minus Cholesterol-free, >0 enhanced anti-cancer activity, about 0 neutral, <0 antagonist
[28] = NCI-H292 cells, drug in cholesterol-free media with simvastatin 0.04 μM
[29] = NCI-H292 cells, drug in complete media
[30] = complete vs cholesterol-free media, […]

C[N+](C)(C)CCO.[Cl-] [Choline (chloride)]
Cholesterol-free media + simvastatin (0.04 μM) [1, 3]: 0.793 | Complete Media [1, 4]: 0.8494 | Difference [1, 5]: 0.06 | Cholesterol-free [2, 6]: 0.7223 | Complete [2, 7]: 1.217 | Difference [2, 8]: 0.49

Pixantrone (dimaleate)
Cholesterol-free media + simvastatin (0.04 μM) [1, 9]: 1.334 | Complete Media [1, 10]: 1.212 | Difference [1, 11]: −0.12 | Cholesterol-free [2, 12]: 1.33 | Complete ([2]; NCI-H292 cells, complete media): 0.8848 | Difference [2, 13]: −0.45

O=C1O[C@H]([C@@H](O)CO)C(O)=C1O [L-Ascorbic acid]
Cholesterol-free media + simvastatin (0.04 μM) [1, 9]: 1.16 | Complete Media [1, 10]: 1.003 | Difference [1, 11]: −0.16 | Difference [2, 14]: −0.14 | Cholesterol-free [2, 15]: 1.001 | Complete [2, 10]: 0.8619

Alarelin (Acetate)
Cholesterol-free media + simvastatin (0.04 μM) [1, 16]: 0.8515 | Complete Media [1, 17]: 0.85 | Difference [1, 18]: 0.00 | Difference [2, 19]: −0.71 | Cholesterol-free [2, 20]: 2.133 | Complete [2, 21]: 1.426

Cc1cc(S(=O)(=O)O)c2c(C)ccc(C(C)C)cc1-2 [Sodium gualenate]
Cholesterol-free media + simvastatin (0.04 μM) [1, 16]: 0.8796 | Complete Media [1, 17]: 0.8094 | Difference [1, 22]: −0.07 | Difference [2, 14]: −0.12 | Cholesterol-free [2, 15]: 0.9704 | Complete [2, 10]: 0.8542

C[N+]1(C)[C@@H]2CC[C@H]1C[C@@H](OC(=O)C(O)c1ccccc1)C2.[Br-] (stereo partly shown) [Homatropine (methylbromide)]
Cholesterol-free media + simvastatin (0.04 μM) [1, 23]: 1.302 | Complete Media [1, 24]: 0.9164 | Difference [1, 25]: −0.39 | Difference [2, 19]: −0.22 | Cholesterol-free [2, 12]: 1.269 | Complete ([2]; NCI-H292 cells, complete media): 1.05

CCC1(c2ccccc2)C(=O)NCNC1=O [Primidone]
Cholesterol-free media + simvastatin (0.04 μM) [1, 9]: 0.9863 | Complete Media [1, 10]: 0.8914 | Difference [1, 11]: −0.09 | Difference [2, 26]: −0.48 | Cholesterol-free [2, 20]: 1.462 | Complete [2, 21]: 0.9788

N[C@@H](CSCC(=O)O)C(=O)O [Carbocisteine]
Cholesterol-free media + simvastatin (0.04 μM) [1, 16]: 0.934 | Complete Media [1, 17]: 0.9494 | Difference [1, 22]: 0.02 | Difference [2, 27]: −0.04 | Cholesterol-free [2, 6]: 1.486 | Complete [2, 7]: 1.447

COc1cc(C(=O)NC2CCCNC2)cc(OC)c1OC (stereo not shown) [Troxipide]
Cholesterol-free media + simvastatin (0.04 μM) [1, 23]: 1.578 | Complete Media [1, 24]: 1.185 | Difference [1, 11]: −0.39 | Difference [2, 26]: −0.70 | Cholesterol-free [2, 20]: 1.812 | Complete [2, 21]: 1.111

Oc1ccc(C=Cc2cc(O)cc(O)c2)cc1 [Resveratrol]
Cholesterol-free media + simvastatin (0.04 μM) [1, 9]: 0.7896 | Complete Media [1, 10]: 0.6933 | Difference [1, 11]: −0.10 | Cholesterol-free [2, 6]: 1.037 | Difference [2, 8]: 0.13

COc1ccc(CN2CCN(C(c3ccc(F)cc3)c3ccc(F)cc3)CC2)c(OC)c1OC [Lomerizine dihydrochloride]
Cholesterol-free media + simvastatin (0.04 μM) [1, 23]: 1.178 | Complete Media [1, 24]: 0.8678 | Difference [1, 11]: −0.31 | Difference [2, 14]: −0.12 | Cholesterol-free [2, 15]: 1.023 | Complete [2, 10]: 0.8999

O=C(O)CCCCC1CCSS1 (stereo not drawn) [α-Lipoic Acid]
Cholesterol-free media + simvastatin (0.04 μM) [1, 9]: 1.116 | Complete Media [1, 10]: 1.004 | Difference [1, 11]: −0.11 | Difference [2, 14]: −0.15 | Cholesterol-free [2, 15]: 1.192 | Complete [2, 10]: 1.044

Nc1[nH]c(=O)ncc1F [Flucytosine]
Cholesterol-free media + simvastatin (0.04 μM) [1, 23]: 1.754 | Complete Media [1, 24]: 1.475 | Difference [1, 11]: −0.28 | Cholesterol-free [2, 12]: 1.247 | Complete ([2]; NCI-H292 cells, complete media): 0.8456 | Difference [2, 13]: −0.40

CCCCC1C(=O)N(c2ccccc2)N(c2ccc(O)cc2)C1=O (stereo not shown) [Oxyphenbutazone]
Cholesterol-free media + simvastatin (0.04 μM) [1, 23]: 1.844 | Complete Media [1, 24]: 1.056 | Difference [1, 11]: −0.79 | Difference [2, 14]: −0.11 | Cholesterol-free [2, 15]: 1.282

NS(=O)(=O)Cc1noc2ccccc12 [Zonisamide]
Cholesterol-free media + simvastatin (0.04 μM) [1, 28]: 1.285 | Complete Media [1, 29]: 1.066 | Difference [1, 11]: −0.22 | Difference [2, 26]: −0.51 | Complete [2, 21]: 1.109

C[C@]12CC[C@H](O)CC1=CC[C@@H]1[C@@H]2CC[C@]2(C)C(=O)CC[C@@H]12 [DHEA]
Cholesterol-free media + simvastatin (0.04 μM) [1, 23]: 1.034 | Complete Media [1, 24]: 0.7371 | Difference [1, 25]: −0.30 | Cholesterol-free [2, 6]: 1.449 | Complete [2, 7]: 1.634 | Difference [2, 30]: 0.19

CCOC(=O)[C@H](C)C[C@@H](Cc1ccc(-c2ccccc2)cc1)NC(=O)CCC(=O)O [Sacubitril hemicalcium salt]
Cholesterol-free media + simvastatin (0.04 μM) [1, 16]: 1.02 | Complete Media [1, 17]: 1 | Difference [1, 22]: −0.02 | Cholesterol-free [2, 6]: 0.6536 | Complete [2, 7]: 1.134 | Difference [2, 8]: 0.48

Rilmenidine (phosphate)
Cholesterol-free media + simvastatin (0.04 μM) [1, 16]: 1.249 | Complete Media [1, 17]: 1.215 | Difference [1, 18]: −0.03 | Difference [2, 19]: 0.01 | Cholesterol-free [2, 6]: 0.9893 | Complete [2, 7]: 0.995

CCN(CCO)CCCC(C)Nc1ccnc2cc(Cl)ccc12 (stereo not shown) [Hydroxychloroquine sulfate]
Cholesterol-free media + simvastatin (0.04 μM) [1, 3]: 0.9769 | Complete Media [1, 4]: 1.024 | Difference [1, 5]: 0.05 | Difference [2, 26]: −0.72 | Complete [2, 21]: 0.895

CC(C)c1cccc(C(C)C)c1O [Propofol]
Cholesterol-free media + simvastatin (0.04 μM) [1]: 1.559 | Complete Media [1]: 1.224 | Difference [1]: −0.33 | Cholesterol-free [2]: 0.9745 | Complete [2]: 0.7898 | Difference [2]: −0.18

Nc1nc(=O)c2c([nH]1)NC[C@@H](CNc1ccc(C(=O)N[C@@H](CCC(=O)O)C(=O)O)cc1)N2C=O [Folinic acid]
Cholesterol-free media + simvastatin (0.04 μM) [1, 23]: 1.232 | Complete Media [1, 24]: 0.9515 | Difference [1, 11]: −0.28 | Difference [2, 14]: −0.12 | Cholesterol-free [2, 15]: 1.105 | Complete [2, 10]: 0.9813

C[C@@](Cc1ccc(O)c(O)c1)(NN)C(=O)O [Carbidopa]
Cholesterol-free media + simvastatin (0.04 μM) [1, 23]: 1.956 | Complete Media [1, 24]: 1.221 | Difference [1, 11]: −0.74 | Difference [2, 14]: −0.16 | Cholesterol-free [2, 15]: 1.15 | Complete [2, 10]: 0.9946

Cc1[nH]cnc1CN1CCc2c(c3ccccc3n2C)C1=O [Alosetron (Hydrochloride)]
Cholesterol-free media + simvastatin (0.04 μM) [1, 9]: 0.9241 | Complete Media [1, 10]: 0.826 | Difference [1, 11]: −0.10 | Difference [2, 27]: 0.05 | Cholesterol-free [2, 6]: 1.398 | Complete [2, 7]: 1.45

Colistin (sulfate)
Cholesterol-free media + simvastatin (0.04 μM) [1, 28]: 1.189 | Complete Media [1, 29]: 0.9801 | Difference [1, 25]: −0.21 | Difference [2, 30]: 0.08

COc1cc(C(C)=O)ccc1OCCCN1CCC(c2noc3cc(F)ccc23)CC1 [Iloperidone]
Cholesterol-free media + simvastatin (0.04 μM) [1, 9]: 0.9523 | Complete Media [1, 10]: 1.134 | Difference [1, 5]: 0.18 | Difference [2, 27]: −0.06 | Complete [2, 7]: 0.8863

O=C(Nc1cccc2c(=O)cc(-c3nnn[nH]3)oc12)c1ccc(OCCCCc2ccccc2)cc1 [Pranlukast]
Cholesterol-free media + simvastatin (0.04 μM) [1, 9]: 0.7995 | Complete Media [1, 10]: 1.23 | Difference [1, 5]: 0.43 | Difference [2, 14]: −0.10 | Cholesterol-free [2, 15]: 0.9973 | Complete [2, 10]: 0.8953

COc1cccc2c1cc([N+](=O)[O-])c1c(C(=O)O)cc3c(c12)OCO3 [Aristolochic acid A]
Cholesterol-free media + simvastatin (0.04 μM) [1, 23]: 0.923 | Complete Media [1, 24]: 0.5762 | Difference [1, 25]: −0.35 | Difference [2, 19]: −0.56 | Cholesterol-free [2, 20]: 1.282 | Complete [2, 21]: 0.7241

O=C1CN(/N=C/c2ccc([N+](=O)[O-])o2)C(=O)N1 [Nitrofurantoin]
Cholesterol-free media + simvastatin (0.04 μM) [1, 9]: 0.848 | Complete Media [1, 10]: 0.7708 | Difference [1, 11]: −0.08 | Difference [2, 14]: −0.16 | Cholesterol-free [2, 15]: 1.115 | Complete [2, 10]: 0.9573

Cc1nc2n(c(=O)c1CCN1CCC(c3noc4cc(F)ccc34)CC1)CCCC2 [Risperidone]
Cholesterol-free media + simvastatin (0.04 μM) [1]: 0.9957 | Difference [1]: 0.16 | Cholesterol-free [2]: 1.099 | Complete [2]: 0.9616 | Difference [2]: −0.14

CC(C(=O)O)c1ccc2c(c1)[nH]c1ccc(Cl)cc12 (stereo not shown) [Carprofen]
Cholesterol-free media + simvastatin (0.04 μM) [1, 3]: 0.8634 | Complete Media [1, 4]: 0.98 | Difference [1, 5]: 0.12 | Difference [2, 14]: −0.18 | Cholesterol-free [2, 15]: 1.071 | Complete [2, 10]: 0.886

CC[C@@]1(O)C(=O)OCc2c1cc1n(c2=O)Cc2cc3cc(O)ccc3nc2-1 [(S)-10-Hydroxycamptothecin]
Cholesterol-free media + simvastatin (0.04 μM) [1, 9]: 0.2337 | Complete Media [1, 10]: 0.138 | Difference [1, 25]: −0.10 | Difference [2, 19]: 0.01 | Cholesterol-free [2, 6]: 0.01962 | Complete [2, 7]: 0.02742
